Test results taken from patent publication US20210000814A1, “RIMEGEPANT FOR CGRP RELATED DISORDERS” (Biohaven Pharmaceutical Holding Company Ltd., priority 2018, published 2021).

System: subjects with Acute Migraines
Assay: BHV3000-301 Phase 3 trial, acute treatment of migraine: efficacy
Type: in vivo, human
Conditions: Study 301; P<0.0001
Description: Clinical Trial—BHV3000-301: Phase 3: Double-Blind, Randomized, Placebo-Controlled, Safety and Efficacy Trial of BHV-3000 (Rimegepant) for the Acute Treatment of Migraine (ClinicalTrials.gov Identifier: NCT03235479). A phase 3 clinical study was conducted with 1490 participants, as follows. […] Pain freedom of rimegepant (75 mg tablet) compared with placebo in the acute treatment of migraine will be measured using the number of evaluable subjects that report no pain at 2 hours post-dose. [Time Frame: Two hours post dose] • Pain will be measured on a 4 point Likert scale (0=none, 1=mild, 2=moderate, 3=severe) • 2. Freedom from the most bothersome symptom (MBS) of rimegepant (75 mg tablet) compared with placebo will be measured using the number of evaluable subjects that report the absence of their MBS at 2 hours post-dose. [Time Frame: Two hours post dose] • The MBS (nausea, phonophobia or photophobia) will measured using a binary scale (0=absent, 1=present). […] [Time Frame: 2 hours -24 hours post-dose] • Sustained Pain Freedom as measured by a 4 point numeric rating scale (None, Mild, Moderate, Severe) • 2. […] [Time Frame: 2 hours post-dose] • Pain Relief as measured by a 4 point numeric rating scale (None, Mild, Moderate, Severe) • 5. […] Sustained Pain Relief as measured by a 4 point numeric rating scale (None, Mild, Moderate, Severe) • 9. […]

With `N[C@@H]1c2cccnc2[C@H](OC(=O)N2CCC(n3c(=O)[nH]c4ncccc43)CC2)CC[C@H]1c1cccc(F)c1F` [Rimegepant, [(55,65,9R)-5-amino-6-(2,3-difluorophenyl)-6,7,8,9-tetrahydro-5H-cyclohepta[b]pyridin-9-yl]4-(2-oxo-3H-imidazo[4,5-b]pyridin-1-yl)piperidine-1-carboxylate] the “patients achieving normal function at 2 hours (functional disability) versus placebo” value was “greater proportion”.
